Results taken from patent publication US8362031B2, “Lonidamine analogues and treatment of polycystic kidney disease” (University of Kansas, priority 2004, dated 2013).

Test system: ADPKD cyst-lining epithelial cells
Test: MTT assay, proliferation of ADPKD cyst-lining epithelial cells
Format: cell-based, human
Protocol: Gamendazole (GMZ) was studied to determine the effect on cAMP and EGF treated ADPKD cyst-lining epithelial cells. The cells were treated with 100 uM cAMP or 25 ng/ml EGF to stimulate cell proliferation. Increasing concentrations of gamendazole were added to the medium of the cells. After 72 hours of treatment, MTT assays were performed.
For the MTT assay shown in FIG. 10A, ADPKD cyst-lining epithelial cells were plated at a density of 4×10^3 cells per well in a 96-well cell culture plate (n=6). Cells were serum-starved for 24 hours and treated either with 100 μM cAMP or 25 ng/ml EGF to stimulate cell proliferation. For the MTT assay shown in FIG. 10B, ADPKD cells were plated at a density of 2×10^3 cells per well in medium containing 1% FBS. After 24 hours, medium was changed to include 5% FBS. Increasing concentrations of GMZ were added to the medium for the cells of both FIGS. 10A and 10B to determine the effect of GMZ on cell proliferation. After 72 hours of treatment, MTT assays were performed by adding dye solution to the cells and stopping the reaction four hours later. Optical densities were measured using a spectrophotometer. In each group, results were expressed as a percentage of the control group (not treated with GMZ).

SMILES: O=C(O)CCc1nn(Cc2ccc(Cl)cc2Cl)c2cc(C(F)(F)F)ccc12 [GMZ, 3-[1-(2,4-dichlorobenzyl)-6-trifluoromethyl-1H-indazol-3-yl]-propionic acid]
- EGF-induced proliferation of ADPKD cells (MTT) (25 ng/ml EGF, 1 uM to 25 uM GMZ for 72 h, dose-dependent): significantly inhibited
- cell proliferation at 10 μM (10 μM): no effect on cell proliferation
- cAMP-induced proliferation of ADPKD cells (MTT) (100 μM cAMP, 1 uM to 25 uM GMZ for 72 h, dose-dependent): significantly inhibited
- Cell proliferation of ADPKD cells with increasing concentration (MTT, FIGS. 10A and 10B) (cAMP, EGF or 5% FBS medium, 72 hours): more effectively inhibited cell proliferation as the concentration was increased
